What was measured:
EPSCs = experiment: EPSCM with other wnt inhibitor in place of XAV939; assay type: cell-based
human EPSCs = experiment: Culture and maintenance of human EPSCs; assay type: cell-based
From the text: We also investigated whether human ESCs could survive and proliferate in EPSCM. H1 hESCs were maintained in standard FGF2 containing media on feeders. H1 cells survived culture in EPSCM and morphologically distinct 3-dimensional colonies emerged within one passage. Continued culture allowed establishment of a stable line which we called H1-EPSCs.
Human iPSC lines were also produced from human neural stem cells, and from human fetal or adult skin fibroblast cells using the six-factor reprogramming technology described in Wang et al (2011) and cultured for 2-3 weeks on feeders. The resulting iPSCs were switched to EPSCM and transgene free stable lines were established (EPSC-iPSCs). (FIG. 6). Stable human EPSC-iPSC lines have been passaged for over 30 passages in EPSCM.
We made several reporter EPSC lines that have a GFP or mCherry expression cassette at loci including Oct4, Sox2 and ROSA26. […] Importantly, these reporter cells provide a convenient way to assess the culture condition. […] However, we have also observed cases where EPSCM supplemented with fewer than six inhibitors has been able to obtain EPSCs. For example, where the EPSCM is supplemented with a chemically defined basal medium, such as Albumax II, it has been observed that fewer than six inhibitors are required obtain EPSCs. […]

Jak/Stat pathway = experiment: LIF response in ESCs and EPSCs; assay type: cell-based, mouse; conditions: adding LIF to EPSCs
Method: For LIF stimulation, 1.0×10^6 cells were seeded in […] for 24 hours. Cells were washed with PBS and cultured in DMEM/F12/KSR for 4 hours, then LIF was supplemented at concentration of 0.0, 0.5, 1.0, 5.0 and 10.0 ng/ml for 30 minutes. Whole cell protein was extracted for Western blot using pSTAT3 (Cell signalling) and STAT3 (BD Biosciences) antibodies. α-Tubulin (Abcam) was used as loading control.
To analyse the expression of down-stream target genes of Jak-Stat3 and MAPK signalling at transcription level after LIF stimulation, both E14Tg2a ESCs and EPSCs were deprived of LIF for 4 hours as above, LIF 1.0 ng/ml was supplemented for 1 hour, total RNA was extracted and reverse transcribed to make cDNA. qPCR was performed using Taqman Gene Expression Assays (ABI)

AB2.2 mouse ESCs = experiment: TE contribution of mouse ESCs cultured in inhibitor combinations, injected to 8-cell host embryos; assay type: cell-based; conditions: AB2.2 mouse ESCs cultured at least 5 passages, chimera blastocysts co-stained for mCherry and Cdx2
From the text: Mouse EPSCs were initially derived and maintained in the standard EPSCM that contains six inhibitors (see materials and methods). To determine the effects of individual inhibitors in EPSCM and to explore the possibility that fewer inhibitors might be sufficient for the expanded potential in mouse stem cells, we cultured AB2.2 mouse ESCs in various combinations of inhibitors, initially based on the 2i/LIF medium, for at least 5 passages before injected to 8-cell host embryos. The chimera blastocysts were co-stained for mCherry and Cdx2 for TE contribution.
Injections were carried out with a Nikon Eclipse TE2000-U inverted microscope unit. ESC/EPSC microinjection was performed at room temperature on the inverted lid of a 100-mm falcon culture dish in an injection drop of 1.0 ml M2 medium (Sigma) The embryo was injected with 6-8 cells per 8-cell stage embryo for bulk injection or 1 cell per embryo for single cell injection. After 45-50 embryos have been injected, the injected embryos were washed three times in KSOM (Millipore) containing 3.0 mg/ml BSA, Embryos were then transferred into a well of four-well plate containing 1.0 ml KSOM. After overnight culture, 20-25 injected embryos were transferred into both uterus of a foster recipient.

## Cc1cc(/C=C2\SC(=O)N(c3ccccc3)C2=O)c(C)n1-c1cccnc1 [iCRT 14]
EPSCs
  use as the wnt inhibitor in EPSCM in place of XAV939: successfully used

## Cc1ccc2nc(NC(=O)CSc3nc4c(c(=O)n3-c3ccccc3)SCC4)sc2c1 [IWP-2]
EPSCs
  use as the wnt inhibitor in EPSCM in place of XAV939: successfully used

## CCOc1nc(NC(=O)Cc2cc(OC)ccc2OC)cc(N)c1C#N [JNKi]
Human EPSCs
  effect of inhibitor absence on human EPSC culture: absence caused gradual deterioration

## LIF: leukemia inhibitory factor, a cytokine
Jak/Stat pathway
  expression of Jak/Stat downstream genes: upregulated expression of Jak/Stat downstream genes
  phosphorylation of Stat3: increased phosphorylation of Stat3

## Oc1nc(-c2ccc(C(F)(F)F)cc2)nc2c1CSCC2 [XAV939]
AB2.2 mouse ESCs
  TE contribution on adding inhibitor to the 2i/LIF (2i) medium: substantially increased TE contribution

## C[S+]([O-])c1ccc(-c2nc(-c3ccncc3)c(-c3ccc(F)cc3)[nH]2)cc1 (centres unmarked) [p38i]
Human EPSCs
  effect of inhibitor absence on human EPSC culture: absence caused gradual deterioration

## CN1CCN(C2CCC(n3cc(-c4ccc(Oc5ccccc5)cc4)c4c(N)ncnc43)CC2)CC1 (centres unmarked) [A419259]
AB2.2 mouse ESCs
  TE contribution on adding inhibitor to the 2i/LIF (2i) medium: substantially increased TE contribution

From US11913018B2, “In vitro production of expanded potential stem cells” (GENOME RESEARCH LIMITED, priority 2014, dated 2024)
